# Assay results: patent US7025958B2, “Use of amidoamines to treat or prevent acanthamoeba and fungal infections” (Alcon, Inc., priority 2000, dated 2006)
# Key:
# Assay type in all cases: cell-based
# [1] = test system: Acanthamoeba polyphaga cysts (ATCC 30871); test: Dose/response of survivors, Acanthamoeba polyphaga cysts in Mueller Hinton Broth
# Experimental: (§1) A 0.1% stock solution of Compound No. 4 was prepared. The compound was dissolved in TRIS buffer^1 by gently heating and swirling. The final pH was adjusted to 7.8 with 1N HCl. […] To prepare the samples, a 0.1% stock solution of Compound No. 4 was serially diluted in Mueller Hinton Broth (MHB)^2,3 (BBL) to provide concentrations of 0.01 w/v %, 0.001 w/v %, 0.0001 w/v %, and 0.00001 w/v %, respectively. Solutions containing 0.02 w/v % polyhexamethylene biguanide (PHMP) and 0.1 w/v % chlorhexidine, respectively, were also utilized as controls.
# The samples were inoculated with low levels (approximately 3.0×10^2 organisms/mL) of the test organism. The test organism was Acanthamoeba polyphaga cysts (ATCC 30871) produced 14 days in. PYG and then 14 days in Page's saline, followed by one month of refrigeration. The samples were checked for survivors at 4, 24, and 48 hours post inoculation. The samples were serially diluted in Dey-Engley neutralizing broth (DE) (Difco) and plated in quadruplicate in tissue culture plate wells containing non-nutrient agar overlaid with E. coli. Plates were sealed and incubated for 14 days at 30-35° C. Results were recorded and counts calculated using the Reed and Muench computation.
# F. solani ATCC 36031 = test: Dose/response of survivors against fungi, F. solani
# Experimental: as §1, with “provide solutions containing Compound No. 4 in” for “provide”, “PHMB” for “polyhexamethylene biguanide (PHMP)”, “were” for “were also”
# (§2) The samples were inoculated with low levels (approximately 1.0×10^3 organisms/mL) of the test organism. The test organisms included the fungi C. albicans ATCC 10231 and F. solani ATCC 36031. The samples were checked for survivors at 4, 24, and 48 hours post inoculation. The samples were serially diluted in Dey Engley neutralizing broth (DE) (Difco) and plated in duplicate using trypicase soy agar containing 0.07% asolectin and 0.5% Tween 80. The plates were incubated for 5 days at 20-25° C. and plate counts recorded.
# C. albicans ATCC 10231 = test: Dose/response of survivors against fungi, C. albicans
# Experimental: as §1, with “provide solutions containing Compound No. 4 in” for “provide”, “PHMB” for “polyhexamethylene biguanide (PHMP)”, “were” for “were also”
# as §2
# [2] = test system: Acanthamoeba Strain 1501-3D (NNA cysts); test: Minimum cysticidal concentration, strain 1501-3D; conditions: 24 hours exposure at 32° C.
# Experimental: (§3) Two different vehicles were utilized to prepare solutions containing Compound No. 4. The first vehicle was the same as the vehicle described in Formulation No. 4 (see Example 2, above), and the second vehicle was a 2 mM TRIS. HCl solution (pH 7.8).
# (§4) Minimum cysticidal levels of Compound No. 4 for Acanthamoeba keratitis strains was determined as follows. Briefly, 100 μl serial, two-fold dilutions were prepared across the rows of a microtitre plate. Control wells received only diluent. An equal volume of five strains of Acanthamoba cysts were added to the wells and the plates sealed and incubated at 32° C. for 24 hours. Using a multi-channel pipette, the solutions in the wells were removed and replaced with 200 μl of ¼ strength Lactated Ringer's solution and left at room temperature for 15 minutes. The washing procedure was repeated twice more before finally filling the wells with 100 μl of ¼ strength Lactated Ringer's solution containing live E. coli at an O.D.540 of 0.2. The plates were then sealed and incubated at 32° C. for up to 7 days.
# (§5) The MCC values for Compound No. 4 and chlorhexidine against the five Acanthamoeba strains (NNA cysts) tested are set forth in Table 4, below.
# [3] = test system: Acanthamoeba Strain Uni Tap Water 1501-3D (NNA cysts); test: Minimum cysticidal concentration, strain Uni Tap Water 1501-3D; conditions: 24 hours exposure at 32° C.
# Experimental: as §3, §4, §5
# [4] = test system: Acanthamoeba Strain Watson (NNA cysts); test: Minimum cysticidal concentration, strain Watson; conditions: 24 hours exposure at 32° C.
# Experimental: as §3, §4, §5
# [5] = test system: Acanthamoeba Strain Ros (NNA cysts); test: Minimum cysticidal concentration, strain Ros; conditions: 24 hours exposure at 32° C.
# Experimental: as §3, §4, §5
# [6] = test system: Acanthamoeba Strain 1501-2g (NNA cysts); test: Minimum cysticidal concentration, strain 1501-2g; conditions: 24 hours exposure at 32° C.
# Experimental: as §3, §4, §5
# [7] = 0.00001% Compound No. 4, 0 hours
# [8] = 0.00001% Compound No. 4, 4 hours
# [9] = 0.00001% Compound No. 4, 24 hours
# [10] = 0.00001% Compound No. 4, 48 hours
# [11] = 0.0001% Compound No. 4, 0 hours
# [12] = 0.0001% Compound No. 4, 4 hours
# [13] = 0.0001% Compound No. 4, 24 hours
# [14] = 0.0001% Compound No. 4, 48 hours
# [15] = 0.001% Compound No. 4, 24 hours
# [16] = 0.001% Compound No. 4, 48 hours
compound,measurement,setting,value
"CCCCCCCCCCCCCC(=O)NCCCN(C)C [Compound No. 4, N,N-Dimethyl-N′-tetradecanoyl-1,3-propylenediamine]",Number of Surviving Organisms,"[1]; 0.00001% Compound No. 4, 0 hrs",3.2 × 10^2
same,Number of Surviving Organisms,"[1]; 0.00001% Compound No. 4, 4 hrs",3.2 × 10^3
same,Number of Surviving Organisms,"[1]; 0.00001% Compound No. 4, 24 hrs",3.2 × 10^3
same,Number of Surviving Organisms,"[1]; 0.00001% Compound No. 4, 48 hrs",3.2 × 10^3
same,Number of Surviving Organisms,"[1]; 0.0001% Compound No. 4, 0 hrs",3.2 × 10^2
same,Number of Surviving Organisms,"[1]; 0.0001% Compound No. 4, 4 hrs",3.2 × 10^3
same,Number of Surviving Organisms,"[1]; 0.0001% Compound No. 4, 24 hrs",2.1 × 10^3
same,Number of Surviving Organisms,"[1]; 0.0001% Compound No. 4, 48 hrs",2.1 × 10^3
same,Number of Surviving Organisms,"[1]; 0.001% Compound No. 4, 0 hrs",3.2 × 10^2
same,Number of Surviving Organisms,"[1]; 0.001% Compound No. 4, 4 hrs",3.2 × 10^2
same,Number of Surviving Organisms,"[1]; 0.001% Compound No. 4, 24 hrs",1.7 × 10^1
same,Number of Surviving Organisms,"[1]; 0.001% Compound No. 4, 48 hrs",<10
same,Number of Surviving Organisms,"[1]; 0.01% Compound No. 4, 0 hrs",3.2 × 10^2
same,Number of Surviving Organisms,"[1]; 0.01% Compound No. 4, 4 hrs",<10
same,Number of Surviving Organisms,"[1]; 0.01% Compound No. 4, 24 hrs",<10
same,Number of Surviving Organisms,"[1]; 0.01% Compound No. 4, 48 hrs",<10
same,Number of Surviving Organisms,F. solani ATCC 36031; [7],4.9 × 10^3
same,Number of Surviving Organisms,F. solani ATCC 36031; [8],5.9 × 10^3
same,Number of Surviving Organisms,F. solani ATCC 36031; [9],1.0 × 10^4
same,Number of Surviving Organisms,F. solani ATCC 36031; [10],4.8 × 10^3
same,Number of Surviving Organisms,F. solani ATCC 36031; [11],4.9 × 10^3
same,Number of Surviving Organisms,F. solani ATCC 36031; [12],6.9 × 10^3
same,Number of Surviving Organisms,F. solani ATCC 36031; [13],9.5 × 10^3
same,Number of Surviving Organisms,F. solani ATCC 36031; [14],1.6 × 10^4
same,Number of Surviving Organisms,"F. solani ATCC 36031; 0.001% Compound No. 4, 0 hours",4.9 × 10^3
same,Number of Surviving Organisms,"F. solani ATCC 36031; 0.001% Compound No. 4, 4 hours",1.0 × 10^1
same,Number of Surviving Organisms,F. solani ATCC 36031; [15],<1
same,Number of Surviving Organisms,F. solani ATCC 36031; [16],<1
same,Number of Surviving Organisms,"F. solani ATCC 36031; 0.01% Compound No. 4, 0 hours",4.9 × 10^3
same,Number of Surviving Organisms,"F. solani ATCC 36031; 0.01% Compound No. 4, 4 hours",<1
same,Number of Surviving Organisms,"F. solani ATCC 36031; 0.01% Compound No. 4, 24 hours",<1
same,Number of Surviving Organisms,"F. solani ATCC 36031; 0.01% Compound No. 4, 48 hours",<1
same,Number of Surviving Organisms,C. albicans ATCC 10231; [7],3.3 × 10^3
same,Number of Surviving Organisms,C. albicans ATCC 10231; [8],3.2 × 10^3
same,Number of Surviving Organisms,C. albicans ATCC 10231; [9],2.5 × 10^4
same,Number of Surviving Organisms,C. albicans ATCC 10231; [10],1.3 × 10^5
same,Number of Surviving Organisms,C. albicans ATCC 10231; [11],3.3 × 10^3
same,Number of Surviving Organisms,C. albicans ATCC 10231; [12],3.2 × 10^3
same,Number of Surviving Organisms,C. albicans ATCC 10231; [13],1.5 × 10^4
same,Number of Surviving Organisms,C. albicans ATCC 10231; [14],1.3 × 10^5
same,Number of Surviving Organisms,"C. albicans ATCC 10231; 0.001% Compound No. 4, 0 hours",3.3 × 10^3
same,Number of Surviving Organisms,"C. albicans ATCC 10231; 0.001% Compound No. 4, 4 hours",4.3 × 10^1
same,Number of Surviving Organisms,C. albicans ATCC 10231; [15],1.0 × 10^1
same,Number of Surviving Organisms,C. albicans ATCC 10231; [16],3.4 × 10^1
same,Number of Surviving Organisms,"C. albicans ATCC 10231; 0.01% Compound No. 4, 0 hours",3.3 × 10^3
same,Number of Surviving Organisms,"C. albicans ATCC 10231; 0.01% Compound No. 4, 4 hours",<1
same,Number of Surviving Organisms,"C. albicans ATCC 10231; 0.01% Compound No. 4, 24 hours",<1
same,Number of Surviving Organisms,"C. albicans ATCC 10231; 0.01% Compound No. 4, 48 hours",<1
"[H]/N=C(\N/C(=N/[H])NCCCCCCNC(=N)NC(=N)Nc1ccc(Cl)cc1)Nc1ccc(Cl)cc1 [Chlorhexidine, chlorhexidine, reference compound]",Minimum Cysticidal Concentration,[2],31.3 micrograms/milliliter
same,Number of Surviving Organisms,"[1]; 0.1% Chlorhexidine, 0 hrs",3.2 × 10^2
same,Number of Surviving Organisms,"[1]; 0.1% Chlorhexidine, 4 hrs",<10
same,Number of Surviving Organisms,"[1]; 0.1% Chlorhexidine, 24 hrs",<10
same,Number of Surviving Organisms,"[1]; 0.1% Chlorhexidine, 48 hrs",<10
same,Minimum Cysticidal Concentration,[3],26.0 micrograms/milliliter
same,Number of Surviving Organisms,"F. solani ATCC 36031; 0.1% Chlorhexidine, 0 hours",4.9 × 10^3
same,Number of Surviving Organisms,"F. solani ATCC 36031; 0.1% Chlorhexidine, 4 hours",<1
same,Number of Surviving Organisms,"F. solani ATCC 36031; 0.1% Chlorhexidine, 24 hours",<1
same,Number of Surviving Organisms,"F. solani ATCC 36031; 0.1% Chlorhexidine, 48 hours",<1
same,Minimum Cysticidal Concentration,[4],62.5 micrograms/milliliter
same,Number of Surviving Organisms,"C. albicans ATCC 10231; 0.1% Chlorhexidine, 0 hours",3.3 × 10^3
same,Number of Surviving Organisms,"C. albicans ATCC 10231; 0.1% Chlorhexidine, 4 hours",<1
same,Number of Surviving Organisms,"C. albicans ATCC 10231; 0.1% Chlorhexidine, 24 hours",<1
same,Number of Surviving Organisms,"C. albicans ATCC 10231; 0.1% Chlorhexidine, 48 hours",<1
same,Minimum Cysticidal Concentration,[5],31.25 micrograms/milliliter
same,Minimum Cysticidal Concentration,[6],52.1 micrograms/milliliter
"polyhexamethylene biguanide [PHMB, reference compound]",Number of Surviving Organisms,"[1]; 0.02% PHMB, 0 hrs",3.2 × 10^2
same,Number of Surviving Organisms,"[1]; 0.02% PHMB, 4 hrs",<10
same,Number of Surviving Organisms,"[1]; 0.02% PHMB, 24 hrs",<10
same,Number of Surviving Organisms,"[1]; 0.02% PHMB, 48 hrs",<10
same,Number of Surviving Organisms,"F. solani ATCC 36031; 0.02% PHMB, 0 hours",4.9 × 10^3
same,Number of Surviving Organisms,"F. solani ATCC 36031; 0.02% PHMB, 4 hours",<1
same,Number of Surviving Organisms,"F. solani ATCC 36031; 0.02% PHMB, 24 hours",<1
same,Number of Surviving Organisms,"F. solani ATCC 36031; 0.02% PHMB, 48 hours",<1
same,Number of Surviving Organisms,"C. albicans ATCC 10231; 0.02% PHMB, 0 hours",3.3 × 10^3
same,Number of Surviving Organisms,"C. albicans ATCC 10231; 0.02% PHMB, 4 hours",<1
same,Number of Surviving Organisms,"C. albicans ATCC 10231; 0.02% PHMB, 24 hours",<1
same,Number of Surviving Organisms,"C. albicans ATCC 10231; 0.02% PHMB, 48 hours",<1
